From ChEMBL document CHEMBL1156029, “The discovery of thienopyridine analogues as potent IkappaB kinase beta inhibitors. Part II” (Bioorg Med Chem Lett, 2009) come the findings set out here.

This assay has as its target T1, Inhibitor of nuclear factor kappa-B kinase subunit beta (Homo sapiens, UniProt O14920).
T1 sequence (O14920 whole entry): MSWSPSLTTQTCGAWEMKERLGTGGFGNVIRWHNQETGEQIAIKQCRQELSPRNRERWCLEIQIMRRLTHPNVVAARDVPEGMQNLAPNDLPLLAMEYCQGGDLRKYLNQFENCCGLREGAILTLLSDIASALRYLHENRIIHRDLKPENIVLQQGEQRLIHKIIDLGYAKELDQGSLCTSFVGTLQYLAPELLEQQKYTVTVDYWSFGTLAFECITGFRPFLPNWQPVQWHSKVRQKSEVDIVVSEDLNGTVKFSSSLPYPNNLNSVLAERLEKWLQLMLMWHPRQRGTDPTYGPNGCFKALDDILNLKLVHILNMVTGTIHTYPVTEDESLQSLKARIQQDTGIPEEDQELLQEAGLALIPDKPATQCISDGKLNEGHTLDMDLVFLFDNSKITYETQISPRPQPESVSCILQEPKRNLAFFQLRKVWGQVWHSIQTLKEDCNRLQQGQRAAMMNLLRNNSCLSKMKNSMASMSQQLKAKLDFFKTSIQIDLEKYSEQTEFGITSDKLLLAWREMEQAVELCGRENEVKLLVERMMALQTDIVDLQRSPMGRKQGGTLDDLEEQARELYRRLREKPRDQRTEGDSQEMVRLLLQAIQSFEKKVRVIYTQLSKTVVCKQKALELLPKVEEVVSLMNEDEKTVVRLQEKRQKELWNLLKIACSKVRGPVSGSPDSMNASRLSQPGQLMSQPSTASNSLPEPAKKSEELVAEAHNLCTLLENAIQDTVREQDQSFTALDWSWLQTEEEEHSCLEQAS
Briefly: Inhibition of Flag epitope-tagged IKK-beta preincubated for 5 mins by scintillation proximity assay. A general note: Scintillation proximity formats need no separation of bound from free tracer.

A word on the IC50: it is the concentration at which inhibition is half-maximal. Read a high IC50 as lower potency. Turning to `CCCc1cc(N2CCCCC(N)C2)nc2sc(C(N)=O)c(N)c12` (stereo unspecified), half-maximal inhibition (IC50) was put at 0.63 µM. In the case of `Cc1cc(N2CCOCC2)nc2sc(C(N)=O)c(N)c12`, half-maximal inhibition (IC50) was put at 2.5 µM. As for `Cc1ccc2c(N)c(C(N)=O)sc2n1`, the figure is 12.7 µM.

As to `CCCc1cc(N2CC[C@H](O)C2)nc2sc(C(N)=O)c(N)c12`, half-maximal inhibition (IC50) required 1.45 µM.

The compound `Cc1cc(N2CCC(O)CC2)nc2sc(C(N)=O)c(N)c12` came in with an IC50 of 0.75 µM.

Consider `CCOc1ccnc2sc(C(N)=O)c(N)c12`, for which the concentration for half-maximal inhibition (IC50) was found to be 2 µM.

As for `CCCc1cc(N2CCN(C(N)=O)CC2)nc2sc(C(N)=O)c(N)c12`, the IC50 turned out to be 0.15 µM. In turn, `Cc1cc(N2CCCC(O)C2)nc2sc(C(N)=O)c(N)c12` (stereo unspecified) had a 50% inhibitory concentration (IC50) of 2.4 µM.

For the compound `CCCc1cc(N2CCNC(=O)C2)nc2sc(C(N)=O)c(N)c12`, the half-maximal inhibitory concentration (IC50) came out at 2 µM. For `CCCc1cc(N2CCC(OC)CC2)nc2sc(C(N)=O)c(N)c12`, the midpoint of inhibition, the IC50, lay at 0.68 µM.

With `CCCc1cc(N2CCC(C(N)=O)CC2)nc2sc(C(N)=O)c(N)c12`, the midpoint of inhibition, the IC50, lay at 1.3 µM. Turning to `CCCOc1ccnc2sc(C(N)=O)c(N)c12`, the IC50 worked out at 2.2 µM. `Cc1cc(-c2cc3ccccc3o2)c2c(N)c(C(N)=O)sc2n1` yielded a half-maximal inhibitory concentration (IC50) of 16.9 µM. `CCCc1cc(N2CC[C@H](N)C2)nc2sc(C(N)=O)c(N)c12` gave an IC50 of 0.59 µM. In the case of `Cc1cc(-c2cccs2)c2c(N)c(C(N)=O)sc2n1` it was 2 µM; in that of `Cc1ccc(-c2cc(C)nc3sc(C(N)=O)c(N)c23)cc1`, 8.5 µM. Consider `CCCc1cc(N2CCC(O)C(C)(C)C2)nc2sc(C(N)=O)c(N)c12` (single isomer, unassigned; enantiomer 1), for which 0.042 µM corresponded to half-maximal inhibition (IC50).

In the case of `CCCc1cc(N2CC[C@@H](O)C2)nc2sc(C(N)=O)c(N)c12`, the concentration for half-maximal inhibition (IC50) was 1.95 µM. `CCCc1cc(N2CCCNCC2)nc2sc(C(N)=O)c(N)c12`: the half-inhibitory concentration (IC50) was determined as 0.072 µM. Compound `Cc1cc(CO)c2c(N)c(C(N)=O)sc2n1` displayed an IC50 of 13.5 µM.

For the compound `CCCc1cc(N2CC[C@@H](N)C2)nc2sc(C(N)=O)c(N)c12`, the IC50 amounted to 0.5 µM.

Turning to `Cc1cc(-c2ccc(S(C)(=O)=O)cc2)c2c(N)c(C(N)=O)sc2n1`, it took 1.3 µM to reach half-maximal inhibition (IC50). In the case of `Cc1cc(-c2ccccc2)c2c(N)c(C(N)=O)sc2n1` it was 7.4 µM; in that of `Cc1cc(OCCO)nc2sc(C(N)=O)c(N)c12`, 6.6 µM.

The compound `Cc1cc(OCCCO)nc2sc(C(N)=O)c(N)c12` registered an IC50 of 5.1 µM.

On to `Cc1cc(N2CCCCC2)nc2sc(C(N)=O)c(N)c12`, for which half-maximal inhibition (IC50) was put at 2.4 µM.

Turning to `Cc1cc(-c2ccc(Cl)cc2)c2c(N)c(C(N)=O)sc2n1`, the IC50 was 14 µM. In turn, `CCCc1cc(N2CCCNC(=O)C2)nc2sc(C(N)=O)c(N)c12` displayed an IC50 of 0.14 µM.

Turning to `Cc1cc(-c2ccco2)c2c(N)c(C(N)=O)sc2n1`, the IC50 worked out at 1.1 µM.

`CCCc1cc(C)nc2sc(C(N)=O)c(N)c12` registered an IC50 of 1.3 µM. `Cc1cc(N2CCNCC2)nc2sc(C(N)=O)c(N)c12` yielded an IC50 of 0.68 µM. As to `Cc1cc(C)c2c(N)c(C(N)=O)sc2n1`, the half-maximal inhibitory concentration (IC50) worked out at 2.7 µM. As for `COCCOc1ccnc2sc(C(N)=O)c(N)c12`, the figure is 10.8 µM; as for `CCCc1cc(N2CCC(C(=O)OC)CC2)nc2sc(C(N)=O)c(N)c12`, 7.8 µM. On to `CCCc1cc(N2CCC(NS(C)(=O)=O)CC2)nc2sc(C(N)=O)c(N)c12`, for which the concentration for half-maximal inhibition (IC50) was 0.098 µM. `Cc1cc(OCCCN)nc2sc(C(N)=O)c(N)c12` had an IC50 of over 50 µM. `COc1ccnc2sc(C(N)=O)c(N)c12`: the IC50 came out at 4.7 µM. `Cc1cc(OCCN)nc2sc(C(N)=O)c(N)c12`: inhibition was half-maximal at 2.9 µM (IC50). Compound `Cc1cc(-c2ccccn2)c2c(N)c(C(N)=O)sc2n1` had a concentration for half-maximal inhibition (IC50) of 6 µM. The compound `CCCc1cc(N2CCC(N(C)C)CC2)nc2sc(C(N)=O)c(N)c12` gave a half-maximal inhibitory concentration (IC50) of 0.68 µM. As for `Cc1cc(NCCO)nc2sc(C(N)=O)c(N)c12`, the figure is 5.8 µM; as for `CCCc1cc(N2CCC(NC)CC2)nc2sc(C(N)=O)c(N)c12`, 0.12 µM. As for `Cc1cc(-c2ccc(O)cc2)c2c(N)c(C(N)=O)sc2n1`, the figure is over 20 µM; as for `CCCc1cc(N2CCN(C)CC2)nc2sc(C(N)=O)c(N)c12`, 0.52 µM; as for `Cc1cc(CC(C)C)c2c(N)c(C(N)=O)sc2n1`, 2.5 µM. Compound `CCCc1cc(N2CCC(O)C(C)(C)C2)nc2sc(C(N)=O)c(N)c12` (single isomer, unassigned; enantiomer 2) displayed a half-maximal inhibitory concentration (IC50) of 0.24 µM.
